The target of assay [1] is T1, Coagulation factor X (Homo sapiens, UniProt P00742). Briefly: Binding affinity against serine protease Coagulation factor X.
In a further assay the target is Prothrombin (Homo sapiens, UniProt P00734). Briefly: Binding affinity against thrombin.
The target in another assay is Serine protease 1 (Homo sapiens, UniProt P07477). As to the kind of experiment: Binding affinity against trypsin.
Assay [2] concerns the target Vitamin K-dependent protein C (Homo sapiens, UniProt P04070). As to the kind of experiment: Binding affinity against activated protein C (APC).
The target of the next assay is Plasminogen (Homo sapiens, UniProt P00747). As to the kind of experiment: Binding affinity against plasmin.
Sequence of Plasminogen (P00747 97-580 limits assumed): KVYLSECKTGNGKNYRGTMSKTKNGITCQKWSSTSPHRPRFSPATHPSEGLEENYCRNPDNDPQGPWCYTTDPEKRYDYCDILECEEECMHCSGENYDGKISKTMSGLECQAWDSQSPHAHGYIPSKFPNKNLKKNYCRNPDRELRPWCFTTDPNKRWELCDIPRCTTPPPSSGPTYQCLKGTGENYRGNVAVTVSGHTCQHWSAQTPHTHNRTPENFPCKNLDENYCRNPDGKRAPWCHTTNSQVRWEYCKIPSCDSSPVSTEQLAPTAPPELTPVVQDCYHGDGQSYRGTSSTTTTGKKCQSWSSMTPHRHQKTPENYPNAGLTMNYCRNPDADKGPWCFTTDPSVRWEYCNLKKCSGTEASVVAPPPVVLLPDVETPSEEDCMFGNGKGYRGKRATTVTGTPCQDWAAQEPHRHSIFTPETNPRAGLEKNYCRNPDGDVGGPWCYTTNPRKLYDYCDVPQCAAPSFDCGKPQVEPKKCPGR
Sequence of Plasminogen (P00747 581-810 limits assumed): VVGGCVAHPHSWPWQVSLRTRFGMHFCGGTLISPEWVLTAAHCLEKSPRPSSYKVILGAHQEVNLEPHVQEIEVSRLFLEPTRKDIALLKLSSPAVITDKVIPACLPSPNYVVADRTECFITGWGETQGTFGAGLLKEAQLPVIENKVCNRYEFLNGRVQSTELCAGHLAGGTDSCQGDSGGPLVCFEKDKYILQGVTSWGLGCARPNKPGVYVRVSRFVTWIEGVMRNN
Assay [3] has as its target T1, Coagulation factor X. Briefly: Binding affinity against serine protease factor Xa (fXa).
Assay [4] addresses Tissue-type plasminogen activator (Homo sapiens, UniProt P00750). Briefly: Binding affinity against tissue plasminogen activator (t-Pa).
Assay [5] concerns the target Coagulation factor X (Rattus norvegicus) (UniProt Q63207). As to the kind of experiment: Inhibitory activity against factor Xa in rat plasma.

A word on the Ki: it is the equilibrium dissociation constant of an inhibitor or competing ligand from its target. Usually IC50 stands for the concentration at which inhibition is half-maximal. Lower therefore signals greater potency.

Sequence of Vitamin K-dependent protein C (P04070 43-197 limits assumed): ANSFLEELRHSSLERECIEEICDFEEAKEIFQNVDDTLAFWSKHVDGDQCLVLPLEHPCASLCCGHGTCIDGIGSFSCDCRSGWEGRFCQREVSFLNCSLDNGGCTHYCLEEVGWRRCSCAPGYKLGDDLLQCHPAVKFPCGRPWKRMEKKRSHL
Sequence of Vitamin K-dependent protein C (P04070 212-461 limits assumed): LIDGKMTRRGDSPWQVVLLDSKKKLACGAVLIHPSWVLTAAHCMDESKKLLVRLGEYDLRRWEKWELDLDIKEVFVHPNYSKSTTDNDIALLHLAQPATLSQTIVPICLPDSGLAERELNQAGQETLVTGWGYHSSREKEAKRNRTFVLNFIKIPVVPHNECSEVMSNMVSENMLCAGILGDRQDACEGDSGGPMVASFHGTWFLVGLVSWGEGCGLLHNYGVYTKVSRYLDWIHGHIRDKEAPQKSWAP
Sequence of Serine protease 1 (P07477 whole entry): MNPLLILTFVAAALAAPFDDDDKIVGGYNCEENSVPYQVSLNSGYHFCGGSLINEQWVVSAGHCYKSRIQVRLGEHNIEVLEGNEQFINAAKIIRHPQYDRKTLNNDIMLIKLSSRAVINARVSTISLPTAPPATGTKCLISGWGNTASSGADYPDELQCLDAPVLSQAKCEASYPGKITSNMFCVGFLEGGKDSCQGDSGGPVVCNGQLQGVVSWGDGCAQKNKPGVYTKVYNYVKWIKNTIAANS
T1 sequence (P00742 41-179 limits assumed): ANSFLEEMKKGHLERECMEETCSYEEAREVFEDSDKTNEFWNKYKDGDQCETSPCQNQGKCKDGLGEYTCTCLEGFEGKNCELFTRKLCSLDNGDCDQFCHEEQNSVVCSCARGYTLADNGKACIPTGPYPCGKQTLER
T1 sequence (P00742 235-488 limits assumed): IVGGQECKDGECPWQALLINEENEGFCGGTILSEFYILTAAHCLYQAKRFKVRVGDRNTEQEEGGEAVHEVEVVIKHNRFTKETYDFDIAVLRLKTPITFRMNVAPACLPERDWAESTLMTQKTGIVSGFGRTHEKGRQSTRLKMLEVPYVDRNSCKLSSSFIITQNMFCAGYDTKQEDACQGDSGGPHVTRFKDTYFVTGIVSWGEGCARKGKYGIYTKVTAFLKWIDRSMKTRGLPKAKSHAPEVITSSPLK
Sequence of Tissue-type plasminogen activator (P00750 whole entry): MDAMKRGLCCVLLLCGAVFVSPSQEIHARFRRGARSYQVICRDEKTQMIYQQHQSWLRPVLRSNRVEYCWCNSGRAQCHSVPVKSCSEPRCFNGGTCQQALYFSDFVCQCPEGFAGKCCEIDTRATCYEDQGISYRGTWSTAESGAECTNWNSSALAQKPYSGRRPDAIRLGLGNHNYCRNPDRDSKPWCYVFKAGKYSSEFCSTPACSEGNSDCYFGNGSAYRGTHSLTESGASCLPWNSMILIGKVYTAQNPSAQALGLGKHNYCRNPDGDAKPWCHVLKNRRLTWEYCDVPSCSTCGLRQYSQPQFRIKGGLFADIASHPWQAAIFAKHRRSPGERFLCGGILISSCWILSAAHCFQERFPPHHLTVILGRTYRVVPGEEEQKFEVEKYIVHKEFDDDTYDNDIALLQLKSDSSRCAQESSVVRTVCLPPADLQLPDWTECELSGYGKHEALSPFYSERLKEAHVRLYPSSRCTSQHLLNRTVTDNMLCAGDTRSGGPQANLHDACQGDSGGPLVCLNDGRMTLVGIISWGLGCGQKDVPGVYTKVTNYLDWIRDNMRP
Sequence of Coagulation factor X (Rattus norvegicus) (Q63207 whole entry, looked up): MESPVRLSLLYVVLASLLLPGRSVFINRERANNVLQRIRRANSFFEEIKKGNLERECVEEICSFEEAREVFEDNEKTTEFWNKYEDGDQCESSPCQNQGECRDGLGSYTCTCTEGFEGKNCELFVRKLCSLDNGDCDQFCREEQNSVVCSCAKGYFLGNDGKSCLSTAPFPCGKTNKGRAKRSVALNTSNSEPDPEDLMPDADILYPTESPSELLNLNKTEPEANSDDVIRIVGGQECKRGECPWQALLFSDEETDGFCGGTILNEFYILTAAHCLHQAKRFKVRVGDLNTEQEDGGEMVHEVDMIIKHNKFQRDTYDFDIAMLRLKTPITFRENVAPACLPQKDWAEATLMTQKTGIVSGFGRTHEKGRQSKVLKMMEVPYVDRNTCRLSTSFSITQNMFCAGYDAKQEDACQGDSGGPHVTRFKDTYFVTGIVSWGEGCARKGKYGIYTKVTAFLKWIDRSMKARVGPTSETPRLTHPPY

For the molecule `N=C(N)c1cccc(CN2CC[C@H](NS(=O)(=O)c3ccc4ccncc4c3)C2=O)c1`, the inhibition constant (Ki) at Coagulation factor X [1] was 510 nM; at Prothrombin, above 4000 nM; on Serine protease 1 it was above 2900 nM.
For `Cc1c(S(=O)(=O)N[C@H]2CCN(Cc3cccc(C(=N)N)c3)C2=O)sc2ccc(Cl)cc12`, affinity on Coagulation factor X [1] was put at a Ki of 36 nM.
Turning to `N=C(N)c1cccc(CN2CC[C@H](NS(=O)(=O)c3ccc4ccc(N)nc4c3)C2=O)c1`, the results for the Ki on Coagulation factor X [1], on Prothrombin and on Serine protease 1 were 240 nM, above 4000 nM and above 2900 nM, respectively.
Consider `N=C(N)c1cccc(CN2CC[C@H](NS(=O)(=O)c3ccc4cnccc4c3)C2=O)c1`, for which the Ki on Coagulation factor X [1] is 380 nM; on Prothrombin it was above 4000 nM; at Serine protease 1 it was above 2900 nM.
For `N=C(N)c1cccc(CN2CC[C@H](NS(=O)(=O)c3ccc4c(N)nccc4c3)C2=O)c1`, the Ki at Coagulation factor X [1] was 90 nM; at Prothrombin it was above 4000 nM; at Serine protease 1, above 2900 nM.
Turning to `N=C(N)c1ccc(N)c(CN2CC[C@H](NS(=O)(=O)c3cc4nc(Cl)ccc4s3)C2=O)c1`, the inhibitory constant (Ki) is 4200 nM in assay [2]; 1500 nM at Plasminogen; 3 nM at Coagulation factor X [3]; above 8700 nM in assay [4]; 1100 nM at Prothrombin; 1800 nM at Serine protease 1.
Regarding `COc1ccc2ccc(S(=O)(=O)N[C@H]3CCN(Cc4cccc(C(=N)N)c4)C3=O)cc2n1`, the Ki at Coagulation factor X [1] is 480 nM; on Prothrombin, above 4000 nM; on Serine protease 1, above 2900 nM.
On to `N=C(N)c1cccc(CN2CC[C@H](NS(=O)(=O)c3cc4c(Cl)nccc4s3)C2=O)c1`, for which the figures for the inhibition constant (Ki) at Coagulation factor X [3], at Prothrombin and at Serine protease 1 were 39 nM, above 4000 nM and above 2900 nM, respectively.
As to `N=C(N)c1cccc(CN2CC[C@H](NS(=O)(=O)c3ccc4cccnc4c3)C2=O)c1`, the inhibition constant (Ki) at Coagulation factor X [1] is 420 nM; at Prothrombin, above 4000 nM; at Serine protease 1 it was above 2900 nM.
Regarding `N=C(N)c1cccc(CN2CC[C@H](NS(=O)(=O)c3cc4ncccc4s3)C2=O)c1`, the inhibition constant Ki is 12000 nM in assay [2]; above 7300 nM at Plasminogen; 26 nM on Coagulation factor X [3]; above 8700 nM in assay [4]; above 4000 nM at Prothrombin; above 2900 nM at Serine protease 1.
Turning to `N=C(N)c1cccc(CN2CC[C@H](NS(=O)(=O)c3cc4nc(Cl)ccc4s3)C2=O)c1`, the Ki in assay [2] was above 18000 nM; at Plasminogen it was 5800 nM; on Coagulation factor X [3], 31 nM; in assay [4], above 8700 nM; on Prothrombin, 3100 nM; on Serine protease 1, above 2900 nM.
As to `N=C(N)c1ccc(O)c(CN2CC[C@H](NS(=O)(=O)c3cc4cnccc4s3)C2=O)c1`, the inhibitory constant (Ki) in assay [2] is above 18000 nM; on Plasminogen it was above 7300 nM; on Coagulation factor X [3], 3 nM; in assay [4], 8700 nM; at Prothrombin, 2600 nM; at Serine protease 1, above 2900 nM.
With `N=C(N)c1cccc(CN2CC[C@H](NS(=O)(=O)c3ccc4ccc(Cl)nc4c3)C2=O)c1`, the Ki on Coagulation factor X [1] was 720 nM; on Prothrombin it was above 4000 nM; at Serine protease 1 it was above 2900 nM.
As to `COc1ccc2sc(S(=O)(=O)N[C@H]3CCN(Cc4cc(C(=N)N)ccc4N)C3=O)cc2n1`, the Ki was 9500 nM in assay [2]; above 7300 nM on Plasminogen; 5 nM at Coagulation factor X [3]; above 8700 nM in assay [4]; 210 nM on Prothrombin; 860 nM on Serine protease 1.
For `N=C(N)c1cccc(CN2CC[C@H](NS(=O)(=O)c3cc4ccc(Cl)nc4s3)C2=O)c1`, the Ki at Coagulation factor X [1] was 120 nM; on Prothrombin it was above 4000 nM; at Serine protease 1, above 2900 nM.
With `N=C(N)c1ccc(O)c(CN2CC[C@H](NS(=O)(=O)c3cc4c(Cl)nccc4s3)C2=O)c1`, the Ki in assay [2] is 8000 nM; on Plasminogen, 4500 nM; at Coagulation factor X [3], 2 nM; in assay [4], 8700 nM; on Prothrombin it was 4000 nM; on Serine protease 1, above 2900 nM.
Take `N=C(N)c1cccc(CN2CC[C@H](NS(=O)(=O)c3ccc4nc(Cl)ccc4c3)C2=O)c1`: the Ki on Coagulation factor X [3] is 110 nM; on Prothrombin, above 4000 nM; on Serine protease 1 it was above 2900 nM.
The like results for `N=C(N)c1cccc(CN2CC[C@H](NS(=O)(=O)c3ccc4nc(N)ccc4c3)C2=O)c1` were, in that order, 160 nM, above 4000 nM and above 2900 nM.
On to `CCOc1ccc2cc(S(=O)(=O)N[C@H]3CCN(Cc4cccc(C(=N)N)c4)C3=O)ccc2n1`, for which the values for the Ki on Coagulation factor X [3], on Prothrombin and at Serine protease 1 were above 1200 nM, above 4000 nM and above 2900 nM, respectively.
For `N=C(N)c1ccc(O)c(CN2CC[C@H](NS(=O)(=O)c3cc4ccnc(Cl)c4s3)C2=O)c1`, the inhibitory constant (Ki) in assay [2] is 5500 nM; at Plasminogen, 7300 nM; at Coagulation factor X [3], 5 nM; in assay [4] it was 7500 nM; at Prothrombin, 2600 nM; on Serine protease 1, above 2900 nM.
`N=C(N)c1cccc(CN2CC[C@H](NS(=O)(=O)c3cc4cccnc4s3)C2=O)c1`: the inhibition constant Ki was 88 nM on Coagulation factor X [3], above 4000 nM at Prothrombin and 2900 nM at Serine protease 1.
As for `N=C(N)c1cccc(CN2CC[C@H](NS(=O)(=O)c3ccc4ncccc4c3)C2=O)c1`, the Ki at Coagulation factor X [3] is 200 nM; on Prothrombin it was above 4000 nM; at Serine protease 1 it was above 2900 nM.
With `N=C(N)c1cccc(CN2CC[C@H](NS(=O)(=O)c3ccc4ccnc(N)c4c3)C2=O)c1`, the Ki on Coagulation factor X [1] is 490 nM; at Prothrombin, above 4000 nM; on Serine protease 1, above 2900 nM.
Turning to `N=C(N)c1cccc(CN2CC[C@H](NS(=O)(=O)c3ccc4cc(Cl)c(Cl)cc4c3)C2=O)c1`, the Ki on Coagulation factor X [1] was around 75 nM.
Turning to `N=C(N)c1ccc(O)c(CN2CC[C@H](NS(=O)(=O)c3cc4ncccc4s3)C2=O)c1`, the Ki came out at 5200 nM in assay [2]; 2300 nM at Plasminogen; 0.7 nM at Coagulation factor X [3]; 360 nM in assay [4]; 4000 nM at Prothrombin; 1000 nM on Serine protease 1.
For the molecule `COc1ccc2ccc(S(=O)(=O)N[C@H]3CCN(Cc4cc(C(=N)N)ccc4O)C3=O)cc2c1`, the Ki in assay [2] was 1970 nM; on Plasminogen it was 2350 nM; in assay [4] it was 1070 nM; on Serine protease 1 it was 305 nM.
Take `N=C(N)c1ccc(O)c(CN2CC[C@H](NS(=O)(=O)c3cc4nc(Cl)ccc4s3)C2=O)c1`: the Ki in assay [2] is 11000 nM; on Plasminogen it was 3600 nM; on Coagulation factor X [3] it was 1.5 nM; in assay [4], 2700 nM; on Prothrombin, 920 nM; on Serine protease 1, 1600 nM.
Consider `N=C(N)c1ccc(O)c(CN2CC[C@H](NS(=O)(=O)c3cc4ccncc4s3)C2=O)c1`, for which the Ki in assay [2] is 18000 nM; at Coagulation factor X [1], 2 nM; at Plasminogen, 6200 nM; in assay [4] it was above 8700 nM; on Prothrombin, 2000 nM; on Serine protease 1, above 2900 nM. In assay [5], this molecule registered a concentration for half-maximal inhibition (IC50) of 11 nM.

The values are drawn from ChEMBL document CHEMBL1131988, “Synthesis, SAR and in vivo activity of novel thienopyridine sulfonamide pyrrolidinones as factor Xa inhibitors” (Bioorg Med Chem Lett, 1999).
